From the Deep4Chem optical property database
One block for each molecule: values may come before it.

Assay: solvent given as SMILES

Compound: O=C(N/N=C/c1ccccc1O)c1ccccc1O
- absorption maximum (in C1CCOC1): 334 nm
- absorption maximum (in CC#N): 335 nm
- absorption maximum (in CC(C)=O): 331 nm
- absorption maximum (in CCO): 400 nm
- absorption maximum (in CN(C)C=O): 412 nm
- absorption maximum (in CS(C)=O): 385 nm
- absorption maximum (in ClCCl): 335 nm

Compound: Cc1ccc(-c2ccc(-c3ccc(-c4ccc(-c5ccc(C)cc5)cc4)c(/C(=C(/c4ccccc4)c4cc(-c5ccc(-c6ccc(C)cc6)cc5)ccc4-c4ccc(-c5ccc(C)cc5)cc4)c4ccccc4)c3)cc2)cc1
- absorption maximum (in C1CCOC1): 308 nm

Compound: CC(C)(C)c1ccc(-c2c3ccccc3c3n2[B-](F)(F)[N+]2=Cc4c5ccccc5c(-c5ccc(C(C)(C)C)cc5)n4[B-](F)(F)[N+]2=C3)cc1
- absorption maximum (in CC#N): 557 nm
- absorption maximum (in CCCCCC): 568 nm
- absorption maximum (in CN(C)C=O): 566 nm
- absorption maximum (in Cc1ccccc1): 573 nm
- absorption maximum (in ClCCl): 567 nm

Compound: N#Cc1c(C#N)c2cc(Cl)c(Cl)cc2c2cc(Cl)c(Cl)cc12
- absorption maximum (in ClC(Cl)Cl): 343 nm

Compound: CCCCCC(=O)Oc1cc2[nH]c(cc2CCOC)c2nc(ccc3[nH]c(cc3CCOC)c3nc1C(CCOC)=C3)C(CCOC)=C2
- absorption maximum (in Cc1ccccc1): 646 nm

Compound: O=C1c2ccccc2-c2nc3c(F)c(F)c(F)c(F)c3n21
- absorption maximum (in ClCCl): 337 nm

Compound: COCCOCCOCN1C(=O)c2ccc3c(-c4ccccc4)c4c5ccc6c7c(ccc(c(-c8ccccc8)c4c4ccc(c2c34)C1=O)c75)C(=O)N(COCCOCCOC)C6=O
- absorption maximum (in ClCCl): 630 nm

Compound: CN(C)c1ccc(/C=C/c2cc(/C=C/c3ccc(N(C)C)cc3)nc(/C=C/c3ccc(C(F)(F)F)cc3)n2)cc1
- absorption maximum (in ClCCl): 429 nm

Compound: COc1ccc2c3c(c4ccc(C(C)(C)C)cc4c2c1)=C(c1cc(OC)c(OC)c(OC)c1)C1=Nc2c(-c4cc(OC)c(OC)c(OC)c4)c4c5ccc(C(C)(C)C)cc5c5cc(OC)ccc5c4n2[B-](F)(F)[N+]=31
- absorption maximum (in Cc1ccccc1): 797 nm

Compound: CCn1c2ccccc2c2cc(-c3cc(-c4ccc5c(c4)c4ccccc4n5CC)nc(C#N)n3)ccc21
- absorption maximum (in C1CCOC1): 381 nm
- absorption maximum (in CCOC(C)=O): 378 nm
- absorption maximum (in CN(C)C=O): 387 nm
- absorption maximum (in Cc1ccccc1): 380 nm
- absorption maximum (in ClCCl): 381 nm

Compound: CCCC1=Cc2nc1ccc1[nH]c(cc1CCO)c1nc(ccc3[nH]c2cc3CCC)C(CCC)=C1
- absorption maximum (in Cc1ccccc1): 637 nm

Now from value to molecule:

- absorption maximum (in ClC(Cl)Cl): 327 nm
Compound: CCCCn1c2ccc(-c3ccc4ccccc4c3)cc2c2ccc3c4cc(-c5ccc6ccccc6c5)ccc4n(CCCC)c3c21

- absorption maximum (in CC#N): 540 nm
- absorption maximum (in CCCCCC): 562 nm
- absorption maximum (in CO): 555 nm
Compound: COc1ccc2c(c1)N(c1ccc(C)cc1)c1cc3c(cc1=N2)Oc1c(cc(C(C)(C)C)cc1C(C)(C)C)N=3

- absorption maximum (in CC#N): 406 nm
Compound: CCOC(=O)c1c2c3c(ccc(OC)c3c3cc4ccccc4cc13)N(C)C2=O

- absorption maximum (in c1ccccc1): 436 nm
Compound: CN(C)c1ccc2nc(-c3ccccc3)c(=O)oc2c1

- absorption maximum (in CS(C)=O): 572 nm
Compound: CCCCN1/C(=C/C=C/C2=[N+](C)c3ccccc3C2(C)C)C(C)(C)c2c1ccc1ccccc21

- absorption maximum (in ClCCl): 309 nm
Compound: Brc1ccc(N2c3c(sc4ccccc34)Sc3sc4ccccc4c32)cc1

- absorption maximum (in CCO): 339 nm
Compound: Cc1cc(=O)oc2cc3cc(-c4cn(Cc5ccccc5)nn4)ccc3cc12

- absorption maximum (in C1CCCCC1): 315 nm
- absorption maximum (in CO): 315 nm
Compound: C/C(=C\c1ccc(C)cc1)c1nc2ccccc2o1

- absorption maximum (in CCCCCC): 468 nm
- absorption maximum (in CO): 476 nm
Compound: COc1ccccc1NC1=CC(=O)c2ccccc2C1=O

- absorption maximum (in CCCCCC): 592 nm
Compound: F[B-]1(F)n2c(ccc2-c2ccccc2)C(C(F)(F)F)=C2C=CC(c3ccccc3)=[N+]21

- absorption maximum (in CC#N): 361 nm
- absorption maximum (in CCCCOCCCC): 361 nm
- absorption maximum (in CO): 357 nm
Compound: Nc1ccc2ccc3cccc4ccc1c2c34

- absorption maximum (in CN(C)C=O): 680 nm
Compound: COC(=O)C(N)Cc1ccc(O[Si]2(Oc3ccc(CC(N)C(=O)OC)cc3)n3c4c5ccccc5c3/N=C3N=C(/N=c5/c6ccccc6/c(n52)=N/C2=NC(=N\4)/c4ccccc42)c2ccccc2\3)cc1 (centres undefined)

- absorption maximum (in CCO): 438 nm
Compound: Cc1ccc(C(=O)OCc2ccc3c4cccc5cccc(c6cccc2c63)c54)cc1
